{
  "source": "patent US20180016593A1",
  "about": "“HERBICIDE-RESISTANT SUNFLOWER PLANTS, POLYNUCLEOTIDES ENCODING HERBICIDE-RESISTANT ACETOHYDROXYACID SYNTHASE LARGE SUBUNIT PROTEINS, AND METHODS OF USE” (priority 2005, published 2018)",
  "key": {"[1]": {"system": "sunflower TH9 (Hybrid, A205V)", "type": "in vivo, Helianthus annuus", "conditions": "14 DAT"}, "[2]": {"system": "Clearfield sunflower variety B", "assay": "Greenhouse spray injury rating (Example 5)", "type": "in vivo", "conditions": "in vivo", "description": "(§1) Methods: Sunflower lines S4897, Clearfield® sunflower varieties A, B, C and a conventional non-Clearfield variety were sprayed with three rates of imazamox (Raptor™), 100, 200 and 300 gm ai/ha plus 0.5% Sun It II and two rates of imazapyr (Arsenal™) 160 and 360 gm ai/ha plus 0.5% Sun It II when the plants were at the two to three leaf stage. Ratings were taken at 14 days after application (DAT) for injury. Injury was rated on a scale from 0 to 9 where […] to 9=dead plant. Twelve plants were sprayed per herbicide/rate treatment. Statistical analysis was conducted with STATGRAPHICS Plus 5.0 by using ANOVA and LSD procedures.\n(§2) Results: After plants were sprayed, it was realized that a height difference between S4897 and other sunflower varieties would have impacted the actual herbicide dose that was delivered. The spray boom height had been calibrated against S4897 and since the other varieties were taller and closer to the boom they would have received a greater dose of herbicide. Rates were recalibrated for the other varieties to determine the approximate dose they would have received. Assessments were made as presented in Table 2 since it was not possible to make a direct rate comparison due to the effect of the height. For example injury scores were compare for S4897 treated imazamox rate 100 gm ai/ha to the other varieties treated at 75 gm ai/ha. The treatment dose of 300 gm ai/ha for line S4897 was equivalent to the treatment of 200 gm ai/ha for the other varieties, which approximately was 300 gm ai/ha."}, "[3]": {"system": "Clearfield sunflower variety C", "assay": "Greenhouse spray injury rating (Example 5)", "type": "in vivo", "conditions": "in vivo", "description": "as §1, §2"}, "[4]": {"system": "conventional non-Clearfield variety", "assay": "Greenhouse spray injury rating (Example 5)", "type": "in vivo", "conditions": "in vivo", "description": "as §1, §2"}, "[5]": {"system": "Clearfield sunflower variety A", "assay": "Greenhouse spray injury rating (Example 5)", "type": "in vivo", "conditions": "in vivo", "description": "as §1, §2"}},
  "note": "Read-outs that look alike come from different tables or passages of the source.",
  "data": [
    {"smiles": "CC(C)C1(C)N=C(c2ncccc2C(=O)O)NC1=O", "note": "(centres unmarked) [imazapyr]", "values": [
      {"measurement": "Phytotoxicity Index", "setting": "[1]; 0.5x (40 g ai/ha)", "value": 0},
      {"measurement": "biomass accumulation (above ground dry weight)", "setting": "[1]; 0.5x (40 g ai/ha)", "value": "91.7 % of untreated plots"},
      {"measurement": "plant height", "setting": "[1]; 0.5x (40 g ai/ha)", "value": "100.0 % of untreated plots"},
      {"measurement": "root dry weight", "setting": "[1]; 0.5x (40 g ai/ha)", "value": "81.5 % of untreated plots"},
      {"measurement": "Phytotoxicity Index", "setting": "[1]; 1x (80 g ai/ha)", "value": 0},
      {"measurement": "biomass accumulation (above ground dry weight)", "setting": "[1]; 1x (80 g ai/ha)", "value": "81.7 % of untreated plots"},
      {"measurement": "plant height", "setting": "[1]; 1x (80 g ai/ha)", "value": "100.0 % of untreated plots"},
      {"measurement": "root dry weight", "setting": "[1]; 1x (80 g ai/ha)", "value": "84.9 % of untreated plots"},
      {"measurement": "Phytotoxicity Index", "setting": "[1]; 2x (160 g ai/ha)", "value": 1.6},
      {"measurement": "biomass accumulation (above ground dry weight)", "setting": "[1]; 2x (160 g ai/ha)", "value": "54.7 % of untreated plots"},
      {"measurement": "plant height", "setting": "[1]; 2x (160 g ai/ha)", "value": "78.9 % of untreated plots"},
      {"measurement": "root dry weight", "setting": "[1]; 2x (160 g ai/ha)", "value": "58.8 % of untreated plots"},
      {"measurement": "Phytotoxicity Index", "setting": "[1]; 3x (240 g ai/ha)", "value": 5.1},
      {"measurement": "biomass accumulation (above ground dry weight)", "setting": "[1]; 3x (240 g ai/ha)", "value": "35.7 % of untreated plots"},
      {"measurement": "plant height", "setting": "[1]; 3x (240 g ai/ha)", "value": "50.0 % of untreated plots"},
      {"measurement": "root dry weight", "setting": "[1]; 3x (240 g ai/ha)", "value": "34.1 % of untreated plots"},
      {"measurement": "Phytotoxicity Index", "setting": "[1]; 4x (320 g ai/ha)", "value": 8.4},
      {"measurement": "biomass accumulation (above ground dry weight)", "setting": "[1]; 4x (320 g ai/ha)", "value": "25.3 % of untreated plots"},
      {"measurement": "plant height", "setting": "[1]; 4x (320 g ai/ha)", "value": "38.1 % of untreated plots"},
      {"measurement": "root dry weight", "setting": "[1]; 4x (320 g ai/ha)", "value": "27.3 % of untreated plots"},
      {"measurement": "Phytotoxicity Index", "setting": "[1]; 5x (400 g ai/ha)", "value": 8.9},
      {"measurement": "biomass accumulation (above ground dry weight)", "setting": "[1]; 5x (400 g ai/ha)", "value": "19.8 % of untreated plots"},
      {"measurement": "plant height", "setting": "[1]; 5x (400 g ai/ha)", "value": "31.8 % of untreated plots"},
      {"measurement": "root dry weight", "setting": "[1]; 5x (400 g ai/ha)", "value": "29.9 % of untreated plots"},
      {"measurement": "Phytotoxicity Index", "setting": "[1]; 6x (480 g ai/ha)", "value": 8.9},
      {"measurement": "biomass accumulation (above ground dry weight)", "setting": "[1]; 6x (480 g ai/ha)", "value": "19.5 % of untreated plots"},
      {"measurement": "plant height", "setting": "[1]; 6x (480 g ai/ha)", "value": "34.7 % of untreated plots"},
      {"measurement": "root dry weight", "setting": "[1]; 6x (480 g ai/ha)", "value": "22.1 % of untreated plots"},
      {"measurement": "Injury (scale 0 to 9)", "setting": "[2]", "value": 4.3, "unit": "b"},
      {"measurement": "Injury (scale 0 to 9)", "setting": "[3]", "value": 4.9, "unit": "c"},
      {"measurement": "Injury (scale 0 to 9)", "setting": "[4]", "value": 8.2, "unit": "days"},
      {"measurement": "Injury (scale 0 to 9)", "setting": "[5]", "value": 5.0, "unit": "c"}
    ]}
  ]
}
